In experiment [1] the target is T1, mGAT1 (Mus musculus, UniProt P31648).
T1 construct: expressed in transfected cells; host or cells: HEK293
As to the kind of experiment: MS Binding Assay with NO711 as native MS marker. To be noted: in presence of 100 μM compound; read-out: remaining specific NO711 binding (mGAT1). The protocol:
(§1) For compounds with pIC50 ([^3H]GABA uptake assay) or pK i (MS Binding Assays) values close to or above 5.0, these experiments were repeated twice and SEM have been calculated.
MS Binding Assays: The MS Binding Assays were performed with mGAT1 membrane preparations obtained from a stably mGAT1 expressing HEK293 cell line and NO711 as unlabeled marker in competitive binding experiments as previously described in detail.34 In short, test compounds were investigated at 7 concentrations in presence of 10 nM NO 711 in competition experiments. Non specific binding was defined as binding remaining in the presence of 100 mM GABA. Incubation was terminated by transfer of 200 μL per well onto a 96‐well filter plate (Acroprep, glass fibre, 1.0 μm, 350 μL, Pall, Dreieich, Germany) with a 12 channel pipette. After rapid vacuum‐filtration the filters were washed with ice cold 0.9 % NaCl (5×150 μL) and dried at 50 °C for 60 min. Afterwards, the filters were eluted with 100 μL methanol containing [^2H10]NO711 (1.4 nM) as internal standard per well into a deep‐well plate by application of vacuum. This step was repeated twice resulting in a total elution volume of 300 μL. Finally, a volume of 130 μL ammonium formate buffer (10 mM, pH 7.0) was added per well and the generated samples analyzed by LC‐ESI‐MS/MS using a API 3200 as described in detail previously.40

In experiment [2] the target is T1, mGAT1. Put plainly: [^3H]GABA uptake assay, HEK293 cells expressing mGAT1. To be noted: for remaining activity at 100 µM: HEK293, in presence of 100 μM compound. Format: cell-based. As to the method:
as §1
(§2) [^3H]GABA uptake assays: The [^3H]GABA uptake assays were performed according to Kragler et al.33 Cells were grown in 150 cm^2 plates to a confluence of 70–90 % up to passage 25. After detachment the cells were centrifuged 5 min at 500×g, washed for three times in phosphate buffered saline and, finally, resuspended in Krebs buffer (2.5 mM CaCl2, 1.2 mM MgSO4, 1.2 mM KH2PO4, 4.7 mM KCl, 11 mM glucose, 25 mM Tris, 119 mM NaCl, pH 7.2). The uptake assays were performed with aliquots of the resulting cell suspension (about 100000–200000 cells per well) in a total volume of 250 μl in 96 well 2.2 mL deep well plates. The cells were equilibrated for 25 min in Krebs buffer in the presence of the test compound at 37 °C in a gently shaking water bath. […] After addition of 25 μl of a solution containing [^3H]GABA (2.22 TBq/mmol, ARC, St Louis, MO, USA) and unlabeled GABA in Krebs (final concentration 8 nM [^3H]GABA and 32 nM unlabeled GABA for mGAT1, mGAT3, mGAT4 and 20 nM [^3H]GABA and 20 nM unlabeled GABA for mGAT2) the cells were incubated for further 4 min (mGAT1, mGAT3, mGAT4) or 10 minutes (mGAT2), respectively. The incubation was stopped by filtration through Sartorius MGC micro glass fiber filters pre‐soaked for 1 h in 0.9 % NaCl by means of a Brandell MWXR‐96TI cell harvester (Brandell, Gaithersburg, MD, USA) under reduced pressure. The filters were rinsed two times with cold 0.9 % NaCl and subsequently transferred to 96 well sample plates (Perkin Elmer LAS, Boston, MA, USA). After addition of 200 μl Rotiszint Eco Plus (Roth, Karlsruhe, Germany) per well the radioactivity was determined in a microbeta liquid scintillation counter (Perkin Elmer LAS, Boston, MA, USA). Non‐specific uptake was determined in presence of 10 mM GABA for mGAT1, mGAT3 and mGAT4 or 100 mM GABA for mGAT2, respectively. The results are expressed as means±S.E.M. of at least three separate experiments, each carried out in triplicate.

In another experiment the target is T2, mGAT2 (Mus musculus, UniProt P31651).
T2 construct: expressed in transfected cells; host or cells: HEK293
T2 sequence (P31651 1-614): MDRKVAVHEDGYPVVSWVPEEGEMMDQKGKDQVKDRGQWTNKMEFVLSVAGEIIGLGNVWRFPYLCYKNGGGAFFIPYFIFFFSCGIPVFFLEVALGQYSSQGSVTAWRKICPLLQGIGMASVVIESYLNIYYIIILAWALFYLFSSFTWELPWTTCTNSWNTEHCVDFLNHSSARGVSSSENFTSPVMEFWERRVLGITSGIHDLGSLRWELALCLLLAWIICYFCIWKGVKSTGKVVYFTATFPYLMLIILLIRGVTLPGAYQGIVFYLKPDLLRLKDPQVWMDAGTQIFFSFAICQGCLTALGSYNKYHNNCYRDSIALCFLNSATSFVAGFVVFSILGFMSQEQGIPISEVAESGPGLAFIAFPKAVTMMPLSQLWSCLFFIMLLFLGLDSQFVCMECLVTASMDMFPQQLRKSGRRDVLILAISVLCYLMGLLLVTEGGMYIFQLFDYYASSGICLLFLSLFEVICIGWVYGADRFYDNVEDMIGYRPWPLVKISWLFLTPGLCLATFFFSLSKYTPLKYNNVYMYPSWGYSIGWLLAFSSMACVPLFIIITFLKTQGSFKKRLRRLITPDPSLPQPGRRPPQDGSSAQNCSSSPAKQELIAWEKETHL
Put plainly: [^3H]GABA uptake assay, HEK293 cells expressing mGAT2. The class given is cell-based. To be noted: for remaining activity at 100 µM: HEK293, in presence of 100 μM compound. As to the method: as §1, §2

For the next experiment, the target named is T3, mGAT3 (Mus musculus, UniProt P31649).
T3 construct: expressed in transfected cells; host or cells: HEK293
T3 sequence (P31649 1-602): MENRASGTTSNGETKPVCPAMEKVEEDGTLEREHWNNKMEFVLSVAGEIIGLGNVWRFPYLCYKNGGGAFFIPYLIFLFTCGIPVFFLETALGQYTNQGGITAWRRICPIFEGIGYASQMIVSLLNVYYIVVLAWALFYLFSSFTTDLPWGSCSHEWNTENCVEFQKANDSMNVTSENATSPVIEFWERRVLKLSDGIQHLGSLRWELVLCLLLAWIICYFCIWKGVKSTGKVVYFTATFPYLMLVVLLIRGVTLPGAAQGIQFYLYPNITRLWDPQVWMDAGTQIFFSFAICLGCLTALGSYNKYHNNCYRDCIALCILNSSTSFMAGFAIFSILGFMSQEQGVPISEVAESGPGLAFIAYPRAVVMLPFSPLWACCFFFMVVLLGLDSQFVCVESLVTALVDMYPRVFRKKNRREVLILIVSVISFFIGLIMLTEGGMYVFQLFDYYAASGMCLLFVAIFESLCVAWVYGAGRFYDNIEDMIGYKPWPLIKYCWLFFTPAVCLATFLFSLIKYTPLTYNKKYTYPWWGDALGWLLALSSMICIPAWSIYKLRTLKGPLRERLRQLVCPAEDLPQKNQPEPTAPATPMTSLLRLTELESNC
As to the kind of experiment: [^3H]GABA uptake assay, HEK293 cells expressing mGAT3. The class given is cell-based. To be noted: for remaining activity at 100 µM: HEK293, in presence of 100 μM compound; for IC50: [^3H]GABA uptake, pIC50±SEM. The protocol:
as §1, §2

The target of another experiment is T4, mGAT4 (Mus musculus, UniProt P31650).
T4 construct: expressed in transfected cells; host or cells: HEK293
T4 sequence (P31650 1-627): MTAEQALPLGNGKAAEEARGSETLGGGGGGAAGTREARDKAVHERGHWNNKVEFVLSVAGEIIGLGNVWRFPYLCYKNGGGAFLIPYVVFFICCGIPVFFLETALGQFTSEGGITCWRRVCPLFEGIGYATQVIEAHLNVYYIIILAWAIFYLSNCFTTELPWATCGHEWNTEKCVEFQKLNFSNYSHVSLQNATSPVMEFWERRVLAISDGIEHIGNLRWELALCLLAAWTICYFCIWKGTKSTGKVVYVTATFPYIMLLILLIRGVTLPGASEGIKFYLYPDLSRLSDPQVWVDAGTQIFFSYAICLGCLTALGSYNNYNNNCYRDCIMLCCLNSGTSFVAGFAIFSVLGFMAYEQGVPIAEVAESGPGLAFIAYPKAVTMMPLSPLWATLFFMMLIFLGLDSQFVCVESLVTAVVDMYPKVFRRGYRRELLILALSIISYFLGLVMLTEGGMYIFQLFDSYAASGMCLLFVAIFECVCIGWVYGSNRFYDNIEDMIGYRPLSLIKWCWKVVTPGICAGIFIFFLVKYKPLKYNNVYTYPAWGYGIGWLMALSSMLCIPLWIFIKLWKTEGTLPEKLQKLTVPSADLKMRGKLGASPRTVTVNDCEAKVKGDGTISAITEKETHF
Put plainly: [^3H]GABA uptake assay, HEK293 cells expressing mGAT4. The class given is cell-based. To be noted: for remaining activity at 100 µM: HEK293, in presence of 100 μM compound; for IC50: [^3H]GABA uptake, pIC50±SEM. The protocol: as §1, §2

In general, IC50 refers to the midpoint of a concentration-inhibition curve. In the case of `COc1ccc(C(OCCN2CCCC(C(=O)O)C2)(c2ccc(OC)cc2)c2ccc(C(N)=O)cc2)cc1` (racemic) [5 j, rac ‐1‐{2‐[(4‐Carbamoylphenyl)bis(4‐methoxyphenyl)methoxy]ethyl}‐piperidine‐3‐carboxylic acid], the remaining activity at 100 µM at mGAT1 [1] is 87%; on mGAT1 [2] it was 79.6%; at mGAT2 it was 96.1%; at mGAT3 it was 82.1%; on mGAT4, 65.2%. In addition, the IC50 on mGAT4 was more than 100 µM.

As for `CCOC(=O)C1CCCN(CCOC(c2ccc(CO)cc2)(c2ccc(OC)cc2)c2ccc(OC)cc2)C1` (racemic) [12 m, rac ‐Ethyl 1‐(2‐{[4‐(hydroxymethyl)phenyl]bis[4‐methoxyphenyl]methoxy}‐ethyl)piperidine‐3‐carboxylate], the remaining activity at 100 µM stood at 75.3% at mGAT1 [1], 50.4% at mGAT1 [2] and 49.3% at mGAT2. The IC50 is 35.5 µM against mGAT3 and 58.9 µM on mGAT4.

For `CCOC(=O)CCNCc1ccc(C(OCCN2CCCC(C(=O)OCC)C2)(c2ccc(OC)cc2)c2ccc(OC)cc2)cc1` (racemic) [12 o, rac ‐Ethyl 1‐{2‐[(4‐{[(3‐ethoxy‐3‐oxopropyl)amino]methyl}phenyl)bis(4‐methoxyphenyl)methoxy]ethyl}piperidine‐3‐carboxylate], the remaining activity at 100 µM on mGAT1 [1] is 72.4%. Moreover, the IC50 on mGAT1 [2] ([^3H]GABA uptake, pIC50±SEM) is 25.7 µM; against mGAT2 ([^3H]GABA uptake, pIC50±SEM) it was 19.1 µM; against mGAT3, 23.4 µM; on mGAT4, 21.9 µM.

For `CCOC(=O)C1CCCN(CCCC(O)(c2ccc(OC)cc2)c2ccc(OC)cc2)C1` (racemic) [12 l, rac ‐Ethyl 1‐[4‐hydroxy‐4,4‐bis(4‐methoxyphenyl)butyl]piperidine‐3‐carboxylate], the remaining activity at 100 µM was found to be 104% at mGAT1 [1]; 79.3% at mGAT1 [2]; 70.4% at mGAT2; 65% on mGAT3; 73.8% at mGAT4.

With `COc1ccc(C(OCCN2CCCC(C(=O)O)C2)(c2ccc(OC)cc2)c2ccc(S(=O)(=O)N(C)C)cc2)cc1` (racemic) [5 c, rac ‐1‐(2‐{[4‐(N,N‐dimethylsulfamoyl)phenyl]bis[4‐methoxyphenyl]‐methoxy}ethyl)piperidine‐3‐carboxylic acid], the remaining activity at 100 µM at mGAT1 [1] was determined as 62.1%; on mGAT1 [2], 67.9%; on mGAT2 it was 78%; at mGAT3 it was 77.1%; on mGAT4, 82%. The compound also showed a 50% inhibitory concentration (IC50) at mGAT4 of more than 100 µM.

In the case of `CCOC(=O)C1CCCN(CCOC(c2ccc(OC)cc2)(c2ccc(OC)cc2)c2ccc(C(C)=O)cc2)C1` (racemic) [12 b, rac‐ Ethyl 1‐{2‐[(4‐acetylphenyl)bis(4‐methoxyphenyl)methoxy]ethyl}‐piperidine‐3‐carboxylate], the remaining activity at 100 µM at mGAT1 [1] was 84.6%; on mGAT1 [2], 72.9%; at mGAT2, 66.4%; at mGAT3, 55.2%; at mGAT4, 84.2%.

For `CCOC(=O)C1CCCN(CCOC(c2ccc(CNC3(C(=O)OCC)CC3)cc2)(c2ccc(OC)cc2)c2ccc(OC)cc2)C1` (racemic) [12 p, rac‐ Ethyl 1‐(2‐{[4‐({[1‐(ethoxycarbonyl)cyclopropyl]amino}methyl)‐phenyl]bis[4‐methoxyphenyl]methoxy}ethyl)piperidine‐3‐carboxylate], the remaining activity at 100 µM at mGAT1 [1] stood at 95.8%; on mGAT1 [2], 75.5%; at mGAT2 it was 103%; at mGAT3, 58.8%; on mGAT4 it was 66.1%.

In the case of `CCOC(=O)C1CCCN(CCOC(c2ccc(CNCCCC(=O)O)cc2)(c2ccc(OC)cc2)c2ccc(OC)cc2)C1` (racemic) [12 s, rac ‐4‐{[4‐({2‐[3‐(Ethoxycarbonyl)piperidin‐1‐yl]ethoxy}bis{4‐methoxy‐phenyl}methyl)benzyl]amino}butanoic acid], the remaining activity at 100 µM at mGAT1 [1] stood at 84.9%; at mGAT1 [2], 52.4%; at mGAT2, 76.7%; on mGAT3 it was 59.3%; at mGAT4, 67.6%.

The values above are taken from PMC7317212 (Chemmedchem, 2020).
